The values that follow come from patent US20180214400A1, “THE USE OF KAURANES COMPOUNDS IN THE MANUFACTURE OF MEDICAMENT FOR TREATMENT OF CADIAC HYPERTROPY AND PULMONARY HYPERTENSION” (KEY-PHARMA BIOMEDICAL INC., priority 2015, published 2018).

Molecules are shown by their SMILES.

Data set [1] concerns hypertrophy cardiomyocytes. As to the kind of experiment: Cytosol Ca++ in hypertrophy cardiomyocytes. Type of data set: cell-based. An excerpt:
This invention disclosed a novel use of inotropic medicine selectively that is compound A can be used to improve the cardiac function in a deteriorative hypertrophy heart without increase cytosol Ca++ or oxygen consumption. In addition it was not worsening the ECG instead it improve the ECG in hypertrophy heart. This is due to that compound A can reduce cardiomyocytes cytosol Ca++ level but enhance only the peak of Ca++ transient during each contraction in hypertrophy cardiomyocytes. This novel finding makes compound A different from other known traditional inotropic medicine such digitalis and beta agonists such as epinephrine.

For a further data set, the system named is microRNA21. As to the kind of experiment: microRNA21 and fibrosis at penumbra region of ischemic heart. Type of data set: in vivo. The text has this: This effect of compound A has never been reported in prior art.
The test system of the next data set is TAC rats. As to the kind of experiment: Left ventricular pressure-volume relationship in TAC rats. Type of data set: in vivo. The settings on record: 3 or 9 weeks. The method, then: The left ventricular pressure and volume were measured simultaneously. Tow parameters can be derived by studying of the relationship of pressure-volume during changes of either preload or afterload. ESPVR, the slope of end-systolic pressure-volume relationships which represent end-systolic elastics; EDPVR, the slope of end-diastolic pressure-volume relationship which, represents cardiac stiffness. In hypertrophy hearts after 3 or 9 weeks TAC, the cardiac pump dysfunction was manifested by a significant decreased ESPVR and increased in EDPVR. […] Therefore, compound A are useful to preserve a normal elasticity during contraction and reduce diastolic stiffness of hearts with high pressure load as in TAC rats.
Heart hemodynamic Analysis was conducted by pressure-volume (PV) catheter. Rats were anesthetized and placed on a warming pad (37° C.). Underwent tracheostomy, rats were then ventilated by using a positive pressure with a tidal volume of 4-6 ml/200 g at 70 breaths/min using room air. […] After stabilization of the signal for 10-15 min, baseline PV loops were recorded at a steady state. […] After data were recorded under steady-state conditions and during preload reduction, parallel conductance values were obtained by the injection of 40 μl hypertonic saline (30%) into the right jugular vein. […] Data were recorded on separate channels of the PowerLab system. […]

Another data set concerns dogs. As to the kind of experiment: Penile erection in male dogs. Type of data set: in vivo. The settings on record: relative higher dose.
The next data set has as its system BNP. As to the kind of experiment: Isoproterenol-induced cardiomyocyte hypertrophy (BNP RT-PCR, western blot, size). Type of data set: cell-based. An excerpt: BNP is an important marker for hypertrophy.
The subject of data set [2] is cardiomyocyte from guinea pig. Description: Electrophysiology in guinea pig cardiomyocyte after ischemia and reperfusion. Type of data set: cell-based. An excerpt:
This invention also disclosed that in cardiomyocyte from guinea pig, that compound A can reduce elongated QT segment and increased QT variations, further it prevent prolonged action potential, decrease resting potential and suppressed Herg (Ikr) currents as result of ischemia and reperfusion. Compound A can also as an scavenger to reduce ROS (reactive oxygen species). Therefore, it can be used for treatment of abnormal ECG in clinic diagnosed with above or used for diseases or clinic procedures which may involve above mentioned mechanism.

The subject of a further data set is sarcolemma KATP channel. Description: Sarcolemma KATP channel effect. An excerpt: This invention disclosed exclusively that compound A per se had no effect on either sarcolemma or mitochondrial KATP channel. Instead, compound A is acting only as a sensitizer which render the KATP channel response greater to known KATP channel openers, such as pinacidil and to change of ATP.

Data set [3] deals with Diabetic cardiomyopathy (DCM) rats. As to the kind of experiment: Streptozotocin-induced diabetic cardiomyopathy. Type of data set: in vivo, Wistar rats. The settings on record: STZ diabetes, 12-16 weeks. The method, then: Diabetic cardiomyopathy (DCM) Diabetic induced injury to the myocardium. DCM, induced by streptozotocin (STZ), along with the associated changes occurring in inflammation, oxidative stress and fibrosis markers. Wistar rats were randomly divided into four groups: group A (Normal control), group B (Diabetes), group […] group D (DM/TMZ, trimetazidine treatment). After 12-16 weeks, left ventricular function was measured by the pressure-volume system. Cardiac tissues were prepared for histological study by hematoxlyin and eosin, Sirius red staining as well as for assays of oxidative stress. Oxidative stress, inflammation, and fibrosis markers were evaluated by molecular biological techniques. All data were measured morphometrically and statistically analyzed.

A further data set has as its system cGMP. As to the kind of experiment: cGMP ELISA in neonatal rat fibroblasts. Type of data set: cell-based. Conditions: 100 um, 3 h. The method, then: Neonatal rat cardiac fibroblasts were isolated from 1-2-day-old Sprague-Dawley rats as described previously. Briefly, hearts from newborn 1-2-day-old Sprague-Dawley rats were minced on ice, and cells were isolated by trypsin incubation at 37° C. Non-cardiomyocytes were separated from the cardiomyocytes by differential pre-plating, and then cardiomyocytes were removed with fibroblasts seeded in culture dishes. The cells were passaged after 3 days, using a 0.05% trypsin solution. Cells were cultured in DEME/F12 medium with 5% fetal calf serum, and maintained at 37° C., 5% CO2 condition. cGMP levels in the neonatal rat fibroblasts after treated with vehicle or compound A or sildenafil were measured with an ELISA kit following the manufacture's instruction. Quiescent cells were cultured with different doses of compound A ([…]) or sildenafil ([…]) for 3 h. After treatment, the cells were lysed with 0.1N HCl, and performed cGMP ELISA assay.
(In general: In an ELISA, binding on a coated surface is turned into a signal by an enzyme label.)

In data set [4] the test system is embolic middle cerebral artery occlusion. Conditions: oral, seven consecutive days starting 2 h or 24 h after occlusion; cited from earlier work.

`C[C@@]12CC[C@@H]3[C@@](CC[C@H]4[C@@]3(C)CCC[C@@]4(C)C(=O)O)(CC1=O)C2` [Compound A, (4α,8β,13β)-13-methyl-16-oxo-17-norkauran-18-oic acid]: in data set [1], the “cardiomyocytes cytosol Ca++ level” value is recorded as “reduce” and the “peak of Ca++ transient during each contraction” value is given as “enhance”. Moreover, the “fibrosis at the same region” value in the data set with microRNA21 is listed as “significant amelioration”. Further, in the data set on microRNA21 (penumbra region of the ischemic heart), the microRNA21 result is listed as “significant reduced”. In addition, the “deteriorations in ESPVR and EDPVR” value in the data set on TAC rats is on record as “prevented the deteriorations”. Further, the penile erection result in the data set on dogs was “long lasting penile erection”. In the data set with BNP (cardiomyocytes, isoproterenol stimulus), the “increase of BNP production and BNP mRNA expression” value is on record as “greatly reduce”. The “increased size of myocardium induced by isoproterenol” value in the data set with BNP (isoproterenol) is listed as “significantly reduce”. In addition, in [2], the decrease resting potential result is reported as “prevent”; the “elongated QT segment and increased QT variations” value is on record as “reduce”; the prolonged action potential entry is listed as “prevent”; the “suppressed Herg (Ikr) currents” value is “prevent”. Besides, the “effect on sarcolemma KATP channel per se” value with sarcolemma KATP channel is listed as “had no effect”. Also, the “KATP channel response to known openers such as pinacidil and to change of ATP” value in the data set with sarcolemma KATP channel (sarcolemma or mitochondrial not distinguished) was “sensitizer”. Moreover, in data set [3], the cardiac hypertrophy entry was “significant inhibited”.
In the case of `CCCc1nn(C)c2c(=O)[nH]c(-c3cc(S(=O)(=O)N4CCN(C)CC4)ccc3OCC)nc12` [sildenafil, reference compound], the Stimulated production of cGMP with cGMP worked out at 141 ± 27%. In addition, in data set [4], the infarct volume entry was “without any effect” and the neurological recovery result was “significantly enhanced”.
